Converted amounts (≈) assume the structure as drawn.
System: not listed separately
Test: Toxicity in human erythrocyte assessed as hemolysis by measuring hemoglobin release after 3 hrs
Format: cell-based
Conditions: not given

SMILES | LC30 [µg/mL]
CC1(C)S[C@@H]2[C@H](NC(=O)Cc3ccccc3)C(=O)N2[C@H]1C(=O)O [PENICILLIN G] | > 10
O=c1cc(OCC(O)CN2CCN(c3ccc([N+](=O)[O-])cc3)CC2)c2ccccc2o1 (stereo not drawn) | > 10
COc1cccc(N2CCN(C(=O)COc3cc(=O)oc4ccccc34)CC2)c1 | > 10
COc1ccccc1N1CCN(CC(O)COc2cc(=O)oc3ccccc23)CC1 (stereo not drawn) | > 10
COc1ccc(N2CCN(CC(O)COc3cc(=O)oc4ccccc34)CC2)cc1 (stereo not drawn) | > 10
Cc1ccc(N2CCN(CC(O)COc3cc(=O)oc4ccccc34)CC2)c(C)c1 (stereo not drawn) | > 10
COc1cccc(N2CCN(CC(O)COc3cc(=O)oc4ccccc34)CC2)c1 (stereo not drawn) | > 10
O=C(COc1cc(=O)oc2ccccc12)N1CCN(c2cccc(Cl)c2Cl)CC1 | > 10
O=c1cc(OCC(O)CN2CCN(c3cccc(C(F)(F)F)c3)CC2)c2ccccc2o1 (stereo not drawn) | > 10
O=C(COc1cc(=O)oc2ccccc12)N1CCN(c2cccc(C(F)(F)F)c2)CC1 | > 10
COc1ccccc1N1CCN(C(=O)COc2cc(=O)oc3ccccc23)CC1 | > 10
COc1ccc(N2CCN(C(=O)COc3cc(=O)oc4ccccc34)CC2)cc1 | > 10

System: Staphylococcus aureus
Test: Antibacterial against Staphylococcus aureus ATCC 25923 after 24 hrs by two-fold serial dilution method
Format: functional
Conditions: ATCC 25923, 24 h

SMILES | MIC [µg/mL]
O=C(COc1cc(=O)oc2ccccc12)N1CCN(c2ccc(F)cc2)CC1 | 29.1 (≈ 76.1 µM)
O=C(COc1cc(=O)oc2ccccc12)N1CCN(c2ccc(Cl)c(Cl)c2)CC1 | > 50
CC1(C)S[C@@H]2[C@H](NC(=O)Cc3ccccc3)C(=O)N2[C@H]1C(=O)O [PENICILLIN G] | 1.69 (≈ 5.04 µM)
O=c1cc(OCC(O)CN2CCN(c3ccc([N+](=O)[O-])cc3)CC2)c2ccccc2o1 (stereo not drawn) | 2.4 (≈ 5.63 µM)
COc1cccc(N2CCN(C(=O)COc3cc(=O)oc4ccccc34)CC2)c1 | 0.837 (≈ 2.12 µM)
COc1ccccc1N1CCN(CC(O)COc2cc(=O)oc3ccccc23)CC1 (stereo not drawn) | 2.52 (≈ 6.15 µM)
COc1ccc(N2CCN(CC(O)COc3cc(=O)oc4ccccc34)CC2)cc1 (stereo not drawn) | 0.355 (≈ 0.865 µM)
Cc1ccc(N2CCN(CC(O)COc3cc(=O)oc4ccccc34)CC2)c(C)c1 (stereo not drawn) | 1.44 (≈ 3.53 µM)
COc1cccc(N2CCN(CC(O)COc3cc(=O)oc4ccccc34)CC2)c1 (stereo not drawn) | 1.83 (≈ 4.46 µM)
O=C(COc1cc(=O)oc2ccccc12)N1CCN(c2cccc(Cl)c2Cl)CC1 | 23.2 (≈ 53.6 µM)
O=c1cc(OCC(O)CN2CCN(c3cccc(C(F)(F)F)c3)CC2)c2ccccc2o1 (stereo not drawn) | 0.957 (≈ 2.13 µM)
O=C(COc1cc(=O)oc2ccccc12)N1CCN(c2cccc(C(F)(F)F)c2)CC1 | 1.08 (≈ 2.5 µM)
COc1ccccc1N1CCN(C(=O)COc2cc(=O)oc3ccccc23)CC1 | 8.19 (≈ 20.8 µM)
COc1ccc(N2CCN(C(=O)COc3cc(=O)oc4ccccc34)CC2)cc1 | 0.327 (≈ 0.829 µM)

System: Escherichia coli
Test: Antibacterial against Escherichia coli ATCC 25922 after 24 hrs by two-fold serial dilution method
Format: functional
Conditions: ATCC 25922, 24 h

SMILES | MIC [µg/mL]
O=C(COc1cc(=O)oc2ccccc12)N1CCN(c2ccc(F)cc2)CC1 | > 50
O=C(COc1cc(=O)oc2ccccc12)N1CCN(c2ccc(Cl)c(Cl)c2)CC1 | > 50
CC1(C)S[C@@H]2[C@H](NC(=O)Cc3ccccc3)C(=O)N2[C@H]1C(=O)O [PENICILLIN G] | 22.4 (≈ 66.9 µM)
O=c1cc(OCC(O)CN2CCN(c3ccc([N+](=O)[O-])cc3)CC2)c2ccccc2o1 (stereo not drawn) | > 50
COc1cccc(N2CCN(C(=O)COc3cc(=O)oc4ccccc34)CC2)c1 | > 50
COc1ccccc1N1CCN(CC(O)COc2cc(=O)oc3ccccc23)CC1 (stereo not drawn) | > 50
COc1ccc(N2CCN(CC(O)COc3cc(=O)oc4ccccc34)CC2)cc1 (stereo not drawn) | > 50
Cc1ccc(N2CCN(CC(O)COc3cc(=O)oc4ccccc34)CC2)c(C)c1 (stereo not drawn) | > 50
COc1cccc(N2CCN(CC(O)COc3cc(=O)oc4ccccc34)CC2)c1 (stereo not drawn) | > 50
O=C(COc1cc(=O)oc2ccccc12)N1CCN(c2cccc(Cl)c2Cl)CC1 | > 50
O=c1cc(OCC(O)CN2CCN(c3cccc(C(F)(F)F)c3)CC2)c2ccccc2o1 (stereo not drawn) | > 50
O=C(COc1cc(=O)oc2ccccc12)N1CCN(c2cccc(C(F)(F)F)c2)CC1 | > 50
COc1ccccc1N1CCN(C(=O)COc2cc(=O)oc3ccccc23)CC1 | > 50
COc1ccc(N2CCN(C(=O)COc3cc(=O)oc4ccccc34)CC2)cc1 | > 50

System: Bacillus subtilis
Test: Antibacterial against Bacillus subtilis ATCC 530 after 24 hrs by two-fold serial dilution method
Format: functional
Conditions: ATCC 530, 24 h

SMILES | MIC [µg/mL]
O=C(COc1cc(=O)oc2ccccc12)N1CCN(c2ccc(F)cc2)CC1 | 34.8 (≈ 91 µM)
O=C(COc1cc(=O)oc2ccccc12)N1CCN(c2ccc(Cl)c(Cl)c2)CC1 | 1.86 (≈ 4.29 µM)
CC1(C)S[C@@H]2[C@H](NC(=O)Cc3ccccc3)C(=O)N2[C@H]1C(=O)O [PENICILLIN G] | 0.752 (≈ 2.25 µM)
O=c1cc(OCC(O)CN2CCN(c3ccc([N+](=O)[O-])cc3)CC2)c2ccccc2o1 (stereo not drawn) | 3.65 (≈ 8.58 µM)
COc1cccc(N2CCN(C(=O)COc3cc(=O)oc4ccccc34)CC2)c1 | 6.96 (≈ 17.6 µM)
COc1ccccc1N1CCN(CC(O)COc2cc(=O)oc3ccccc23)CC1 (stereo not drawn) | 3.88 (≈ 9.46 µM)
COc1ccc(N2CCN(CC(O)COc3cc(=O)oc4ccccc34)CC2)cc1 (stereo not drawn) | 0.236 (≈ 0.575 µM)
Cc1ccc(N2CCN(CC(O)COc3cc(=O)oc4ccccc34)CC2)c(C)c1 (stereo not drawn) | 2.86 (≈ 6.99 µM)
COc1cccc(N2CCN(CC(O)COc3cc(=O)oc4ccccc34)CC2)c1 (stereo not drawn) | 0.612 (≈ 1.49 µM)
O=C(COc1cc(=O)oc2ccccc12)N1CCN(c2cccc(Cl)c2Cl)CC1 | 4.51 (≈ 10.4 µM)
O=c1cc(OCC(O)CN2CCN(c3cccc(C(F)(F)F)c3)CC2)c2ccccc2o1 (stereo not drawn) | 1.08 (≈ 2.4 µM)
O=C(COc1cc(=O)oc2ccccc12)N1CCN(c2cccc(C(F)(F)F)c2)CC1 | 0.916 (≈ 2.12 µM)
COc1ccccc1N1CCN(C(=O)COc2cc(=O)oc3ccccc23)CC1 | 11 (≈ 27.8 µM)
COc1ccc(N2CCN(C(=O)COc3cc(=O)oc4ccccc34)CC2)cc1 | 0.861 (≈ 2.18 µM)

System: Pseudomonas aeruginosa
Test: Antibacterial against Pseudomonas aeruginosa ATCC 27853 after 24 hrs by two-fold serial dilution method
Format: functional
Conditions: ATCC 27853, 24 h

SMILES | MIC [µg/mL]
O=C(COc1cc(=O)oc2ccccc12)N1CCN(c2ccc(F)cc2)CC1 | > 50
O=C(COc1cc(=O)oc2ccccc12)N1CCN(c2ccc(Cl)c(Cl)c2)CC1 | 48.1 (≈ 111 µM)
CC1(C)S[C@@H]2[C@H](NC(=O)Cc3ccccc3)C(=O)N2[C@H]1C(=O)O [PENICILLIN G] | 22 (≈ 65.7 µM)
O=c1cc(OCC(O)CN2CCN(c3ccc([N+](=O)[O-])cc3)CC2)c2ccccc2o1 (stereo not drawn) | 33 (≈ 77.6 µM)
COc1cccc(N2CCN(C(=O)COc3cc(=O)oc4ccccc34)CC2)c1 | > 50
COc1ccccc1N1CCN(CC(O)COc2cc(=O)oc3ccccc23)CC1 (stereo not drawn) | 49.8 (≈ 121 µM)
COc1ccc(N2CCN(CC(O)COc3cc(=O)oc4ccccc34)CC2)cc1 (stereo not drawn) | > 50
Cc1ccc(N2CCN(CC(O)COc3cc(=O)oc4ccccc34)CC2)c(C)c1 (stereo not drawn) | > 50
COc1cccc(N2CCN(CC(O)COc3cc(=O)oc4ccccc34)CC2)c1 (stereo not drawn) | 17.1 (≈ 41.6 µM)
O=C(COc1cc(=O)oc2ccccc12)N1CCN(c2cccc(Cl)c2Cl)CC1 | > 50
O=c1cc(OCC(O)CN2CCN(c3cccc(C(F)(F)F)c3)CC2)c2ccccc2o1 (stereo not drawn) | > 50
O=C(COc1cc(=O)oc2ccccc12)N1CCN(c2cccc(C(F)(F)F)c2)CC1 | > 50
COc1ccccc1N1CCN(C(=O)COc2cc(=O)oc3ccccc23)CC1 | > 50
COc1ccc(N2CCN(C(=O)COc3cc(=O)oc4ccccc34)CC2)cc1 | > 50

System: not listed separately
Test: Cytotoxicity against human macrophages assessed as cell viability after 24 hrs by MTT assay
Format: functional, cell-based
Conditions: Macrophage

SMILES | IC50 [µM]
CC1(C)S[C@@H]2[C@H](NC(=O)Cc3ccccc3)C(=O)N2[C@H]1C(=O)O [PENICILLIN G] | 186
O=c1cc(OCC(O)CN2CCN(c3ccc([N+](=O)[O-])cc3)CC2)c2ccccc2o1 (stereo not drawn) | 153
COc1cccc(N2CCN(C(=O)COc3cc(=O)oc4ccccc34)CC2)c1 | 141
COc1ccccc1N1CCN(CC(O)COc2cc(=O)oc3ccccc23)CC1 (stereo not drawn) | 256
COc1ccc(N2CCN(CC(O)COc3cc(=O)oc4ccccc34)CC2)cc1 (stereo not drawn) | 198
Cc1ccc(N2CCN(CC(O)COc3cc(=O)oc4ccccc34)CC2)c(C)c1 (stereo not drawn) | 127
COc1cccc(N2CCN(CC(O)COc3cc(=O)oc4ccccc34)CC2)c1 (stereo not drawn) | 178
O=C(COc1cc(=O)oc2ccccc12)N1CCN(c2cccc(Cl)c2Cl)CC1 | 223
O=c1cc(OCC(O)CN2CCN(c3cccc(C(F)(F)F)c3)CC2)c2ccccc2o1 (stereo not drawn) | 172
O=C(COc1cc(=O)oc2ccccc12)N1CCN(c2cccc(C(F)(F)F)c2)CC1 | 188
COc1ccccc1N1CCN(C(=O)COc2cc(=O)oc3ccccc23)CC1 | 164
COc1ccc(N2CCN(C(=O)COc3cc(=O)oc4ccccc34)CC2)cc1 | 192

System: not listed separately
Test: Inhibition of Staphylococcus aureus FabI assessed as oxidation of NADH to NAD+ by spectrophotometrically
Conditions: not given

SMILES | IC50 [µM]
O=C(COc1cc(=O)oc2ccccc12)N1CCN(c2ccc(F)cc2)CC1 | 37.6
O=C(COc1cc(=O)oc2ccccc12)N1CCN(c2ccc(Cl)c(Cl)c2)CC1 | 19.8
O=c1cc(OCC(O)CN2CCN(c3ccc([N+](=O)[O-])cc3)CC2)c2ccccc2o1 (stereo not drawn) | 3.82
COc1cccc(N2CCN(C(=O)COc3cc(=O)oc4ccccc34)CC2)c1 | 4.62
COc1ccccc1N1CCN(CC(O)COc2cc(=O)oc3ccccc23)CC1 (stereo not drawn) | 5.54
COc1ccc(N2CCN(CC(O)COc3cc(=O)oc4ccccc34)CC2)cc1 (stereo not drawn) | 0.57
Cc1ccc(N2CCN(CC(O)COc3cc(=O)oc4ccccc34)CC2)c(C)c1 (stereo not drawn) | 6.23
COc1cccc(N2CCN(CC(O)COc3cc(=O)oc4ccccc34)CC2)c1 (stereo not drawn) | 2.73
O=C(COc1cc(=O)oc2ccccc12)N1CCN(c2cccc(Cl)c2Cl)CC1 | 8.41
O=c1cc(OCC(O)CN2CCN(c3cccc(C(F)(F)F)c3)CC2)c2ccccc2o1 (stereo not drawn) | 0.97
O=C(COc1cc(=O)oc2ccccc12)N1CCN(c2cccc(C(F)(F)F)c2)CC1 | 1.82
COc1ccccc1N1CCN(C(=O)COc2cc(=O)oc3ccccc23)CC1 | 7.15
COc1ccc(N2CCN(C(=O)COc3cc(=O)oc4ccccc34)CC2)cc1 | 0.83
